# Experimental data reported in patent US20070293486A1, “Alpha-Keto Carbonyl Calpain Inhibitors” (SANTHERA PHARMACEUTICALS (SCHWEIZ) AG, priority 2004, published 2007).
# Assays:
# [1] = test system: cellular calpains in C2C12 myoblasts; experiment: Calpain Inhibition Assay in C2C12 Myoblasts; assay type: cell-based; settings: read-out: Calp I IC50 Myoblast
# Procedure: This assay is aimed at monitoring the ability of the substance to inhibit cellular calpains. C2C12 myoblasts are grown in 96-well plates in growth medium (DMEM, 20% foetal calf serum) until they reach confluency. The growth medium is then replaced by fusion medium (DMEM, 5% horse serum). 24 hours later the fusion medium is replaced by fusion medium containing the test substances dissolved in 1 μl DMSO. After 2 hours of incubation at 37° C. the cells are loaded with the calpain fluorogenic substrate Suc-Leu-Tyr-AMC at 400 μM in 50 μl of a reaction buffer containing 135 mM NaCl; 5 mM KCl; 4 mM CaCl2; 1 mM MgCl2; 10 mM Glucose; 10 mM HEPES pH 7.25 for 20 min at room temperature. The calcium influx, necessary to activate the cellular calpains, is evoked by the addition of 50 μl reaction buffer containing 20 μM of the calcium ionophore Br-A-23187 (Molecular Probes). The fluorescence of the cleavage product AMC is measured as described above during 60 min at 37° C. at intervals of 1 min. The IC50 values are determined as described above. Comparison of the IC50 determined in the enzymatic calpain inhibition assay to the IC50 determined in the C2C12 myoblasts calpain inhibition assay, allows to evaluate the cellular uptake or the membrane permeability of the substance.
# human μ-calpain = target: T1, human μ-calpain (Homo sapiens, UniProt P07384); experiment: Enzymatic Calpain Inhibition Assay; assay type: biochemical; settings: enzymatic calpain I inhibition; read-out: Calp I IC50
# T1 construct: purchased Calbiochem
# T1 sequence (P07384 1-714): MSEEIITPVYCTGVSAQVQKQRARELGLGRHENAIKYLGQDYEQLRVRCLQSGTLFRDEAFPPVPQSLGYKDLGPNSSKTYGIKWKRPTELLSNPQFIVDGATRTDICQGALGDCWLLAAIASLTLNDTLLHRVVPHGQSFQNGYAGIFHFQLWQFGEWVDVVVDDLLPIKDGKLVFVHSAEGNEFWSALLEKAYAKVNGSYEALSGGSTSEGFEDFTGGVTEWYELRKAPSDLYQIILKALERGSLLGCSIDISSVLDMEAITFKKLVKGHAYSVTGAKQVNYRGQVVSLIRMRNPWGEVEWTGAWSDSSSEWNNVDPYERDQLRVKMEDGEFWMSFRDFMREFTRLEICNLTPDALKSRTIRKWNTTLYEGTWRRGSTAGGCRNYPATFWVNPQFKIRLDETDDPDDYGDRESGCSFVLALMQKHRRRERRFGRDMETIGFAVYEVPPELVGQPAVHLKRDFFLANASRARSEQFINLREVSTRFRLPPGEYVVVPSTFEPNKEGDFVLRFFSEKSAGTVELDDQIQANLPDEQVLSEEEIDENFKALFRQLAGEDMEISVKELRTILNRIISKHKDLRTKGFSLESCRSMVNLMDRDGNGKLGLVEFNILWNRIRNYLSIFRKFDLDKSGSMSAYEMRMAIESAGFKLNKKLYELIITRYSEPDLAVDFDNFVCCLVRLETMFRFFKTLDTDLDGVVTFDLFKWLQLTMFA
# T1 sequence (P04632 1-268 partner): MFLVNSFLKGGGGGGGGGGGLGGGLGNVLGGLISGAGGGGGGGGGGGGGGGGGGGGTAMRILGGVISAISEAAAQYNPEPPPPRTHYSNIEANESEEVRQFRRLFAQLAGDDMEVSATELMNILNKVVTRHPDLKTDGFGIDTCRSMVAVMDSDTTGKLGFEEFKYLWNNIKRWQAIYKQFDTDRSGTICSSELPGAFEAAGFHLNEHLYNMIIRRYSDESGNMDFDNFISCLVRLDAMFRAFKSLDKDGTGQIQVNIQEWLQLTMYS
# Procedure: The Ki value was also determined in some cases. These criteria were used to measure the inhibitory effect of the compounds (I) on calpain I, calpain II and cathepsin B.
# The inhibitory properties of calpain inhibitors are tested in 100 μl of a buffer containing 100 mM imidazole pH 7.5, 5 mM L-Cystein-HCl, 5 mM CaCl2, 250 μM of the calpain fluorogenic substrate Suc-Leu-Tyr-AMC (Sigma) (Sasaki et al., J. Biol. Chem., 1984, 259, 12489-12949) dissolved in 2.5 μl DMSO and 0.5 μg of human μ-calpain (Calbiochem). The inhibitors dissolved in 1 μl DMSO are added to the reaction buffer. The fluorescence of the cleavage product 7-amino-4-methylcoumarin (AMC) is followed in a SPECTRAmax GEMINI XS (Molecular Device) fluorimeter at λex=360 nm and λem=440 nm at 30° C. during 30 min at intervals of 30 sec in 96-well plates (Greiner). The initial reaction velocity at different inhibitor concentrations is plotted against the inhibitor concentration and the IC50 values determined graphically.
# [2] = test system: utrophin protein levels in human DMD myotubes; experiment: Utrophin Expression Assay in Human Myotubes; assay type: cell-based; settings: 50 nM test compound
# Procedure: Utrophin induction was determined by a method which was similar to a method of 1. Courdier-Fruh et al., Neuromuscular Disord., 2002, 12, S95-S104. Primary human muscle cell cultures were prepared from muscle biopsies taken during orthopedic surgery from Duchenne patients (provided by the Association Francaise contre les Myopathies). Cultures were prepared and maintained according to standard protocols. Induction of utrophin expression in human DMD myotubes was assayed at 50 nM or 500 nM of test compound added in differentiation medium. Normalized utrophin protein levels are determined after 56 d of incubation by cell-based ELISA with a mouse monoclonal antibody to the aminoterminal portion of utrophin (NCL-DRP2, Novocastra Laboratories). For calibration, the cell density and differentiation was determined by absorbance measurements of the total dehydrogenase enzyme activity in each well using the calorimetric CellTiter 96®AQ One Solution Reagent Proliferation Assay (Promega) according to the manufacturer's recommendation. Subsequently, cells were fixed, washed, permeabilized with 0.5% (v/v) Triton X-100 and unspecific antibody binding-sites blocked by standard procedures. Utrophin protein levels were determined immunologically with utrophin-specific primary antibody and with an appropriate peroxidase-coupled secondary antibody (Jackson ImmunoResearch Laboratories) using QuantaBlu™ Fluorogenic Peroxidase Substrate Kit (Pierce) for detection. Fluorescence measurements were carried out with a multilabel counter (Wallac) at λex=355 nm and at λem=460 nm. The primary readout of this signal is presented in arbitrary units. For calibration, the arbitrary units representing the relative utrophin protein content of each well was divided by the corresponding cell-titer absorbance value to correct for cell density. For comparison between experiments, the cell-titer corrected readout for utrophin protein content in each well was expressed in percent of solvent treated control cultures (set to 100%), i.e. data are % utrophin protein levels compared to DMSO solvent (N=4).
# 20S Proteasome = target: T2, 20S Proteasome (Oryctolagus cuniculus, UniProt G1T4Q9); experiment: 20S Proteasome Assay; assay type: biochemical; settings: Rabbit, read-out: 20S Prot IC50
# T2 sequence (G1T4Q9 1-263): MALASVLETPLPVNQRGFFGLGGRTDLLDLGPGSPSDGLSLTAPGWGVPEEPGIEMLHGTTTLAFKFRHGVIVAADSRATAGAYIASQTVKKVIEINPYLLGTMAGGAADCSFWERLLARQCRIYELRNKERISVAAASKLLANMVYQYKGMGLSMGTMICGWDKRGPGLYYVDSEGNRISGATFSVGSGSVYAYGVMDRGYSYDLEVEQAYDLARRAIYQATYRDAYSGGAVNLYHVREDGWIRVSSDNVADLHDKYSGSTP
# Procedure: 25 μl of a reaction buffer containing 400 μM of the fluorogenic substrate Suc-Leu-Leu-Val-Tyr-AMC (Bachem) are dispensed per well of a white microtiter plate. Test compounds dissolved in 0.5 μl DMSO are added. To start the reaction; 25 μl of reaction buffer containing 35 ng of enzyme (20S Proteasome, Rabbit, Calbiochem) are added. The increase in fluorescence (excitation at 360 nm; emission at 440 nm) is measured over 30 min at 30° C. at 30″. The IC50's are then determined from the slopes.
# [3] = test system: experimental muscular dystrophy in hamster; settings: Journal of Pharmacobiodynamics, 1987, 10, 678; cited from earlier work
IC50 [1],IC50 (human μ-calpain),melting point,IC50 (20S Proteasome),SMILES,UTR Induction @50 nM [2],life-prolonging effect in experimental muscular dystrophy [3]
0.2 µM,0.045 µM,–,–,CCNC(=O)C(=O)[C@H](Cc1ccc(Cl)cc1)NC(=O)[C@@H](NC(=O)[C@H](Cc1ccccc1)NC(=O)CCCCC1CCSS1)C(C)C (stereo partly shown) [Example 1],–,–
0.028 µM,0.016 µM,190 to 192 °C,0.01 µM,CCNC(=O)C(=O)C(Cc1ccc(OC)cc1)NC(=O)C(NC(=O)C(Cc1csc2ccccc12)NC(=O)CCCCC1CCS[S+]1[O-])C(C)C (stereo not shown) [Example 606],151%,–
0.02 µM,0.035 µM,220 °C,0.027 µM,CCNC(=O)C(=O)C(Cc1ccccc1)NC(=O)C(NC(=O)C(Cc1cccc2ccccc12)NC(=O)CCCCC1CCSS1)C(C)C (stereo not shown) [Example 735],134%,–
–,–,–,–,CCOC(=O)[C@H]1O[C@@H]1C(=O)N[C@@H](CC(C)C)C(=O)NCCC(C)C [Example E-64-d],–,life-prolonging effect
